In ChEMBL document CHEMBL6096684, “Targeting IspD for Anti-infective and Herbicide Development: Exploring Its Role, Mechanism, and Structural Insights” (J Med Chem, 2025) one finds IC50 data, which are given here for 18 compounds.

The nature of test [1]: Inhibition of Arabidopsis thaliana IspD.
A short description of test [2]: Inhibition of wild type Plasmodium falciparum IspD extracted from Escherichia coli BL21 (DE3).
A short description of test [3]: Inhibition of Plasmodium falciparum IspD.
Test [4] in a line: Inhibition of Plasmodium vivax IspD.
Test [5] in a line: Inhibition of Plasmodium falciparum 3D7 IspD.

Consider `N#Cc1cnn2c(O)c(Cc3ccccc3)c(Cl)nc12`, for which 35 µM corresponded to half-maximal inhibition in test [1] (IC50).

In turn, `COc1ccc2nc(NC(=O)c3cc(-c4ccccc4O)n[nH]3)sc2c1` displayed a concentration for half-maximal inhibition (IC50) in test [1] of 1.8 µM.

As for `COc1ccc2nc(NC(=O)COc3ccc(-c4ccccc4)cc3)sc2c1`, the midpoint of inhibition in test [1], the IC50, lay at 6.3 µM.

Compound `O=C(O)[C@@H]1Cc2c([nH]c3ccccc23)[C@@H](c2ccc(Cl)cc2Cl)N1` came in with a half-maximal inhibitory concentration (IC50) in test [2] of 0.25 µM.

`O=C(O)[C@H]1Cc2c([nH]c3ccccc23)[C@H](c2ccc(Cl)cc2Cl)N1` registered an IC50 in test [2] of 0.047 µM. Compared with the last compound, the IC50 is about 5.3-fold lower.

In turn, `O=C(O)[C@H]1Cc2c([nH]c3ccccc23)[C@@H](c2ccc(Cl)cc2Cl)N1` yielded a half-inhibitory concentration (IC50) in test [2] of 0.17 µM.

The compound `Cc1ccc(C)n1-c1ccc([N+](=O)[O-])cc1C(=O)O` returned a half-maximal inhibitory concentration (IC50) in test [3] of 271 µM.

For the compound `O=C(O)c1cnn2c(O)c(Cc3ccccc3)c(Cl)nc12`, in test [1], the IC50 was found to be 274 µM.

`O=c1c2ccccc2sn1-c1cccc(-c2ccc(Cl)cc2)c1`: the 50% inhibitory concentration (IC50) in test [4] was found to be 0.057 µM; in test [5] it was 1.1 µM; in test [3] it was 0.073 µM.

Regarding `Cc1ccc(-n2sc3ccccc3c2=O)cc1S(=O)(=O)N1CCOCC1`, the figures for the IC50 in test [4], in test [5] and in test [3] were 0.045 µM, 4.3 µM and 0.45 µM, respectively.

Take `Oc1c(Br)cc(Br)cc1-c1cc(C(F)(F)F)no1`: the IC50 in test [1] came out at 9.3 µM.

As for `Oc1ccc(Br)cc1-c1cc(C(F)(F)F)no1`, the half-maximal inhibitory concentration (IC50) in test [1] amounted to 418 µM.

As for `Oc1c(Br)cc(Br)cc1-c1ccno1`, in test [1], the midpoint of inhibition, the IC50, lay at 121 µM.

Compound `CC(C)CCn1c(N)c(-c2nc3ccccc3[nH]2)c2nc3ccccc3nc21` registered an IC50 in test [1] of 1.6 µM.

`Oc1ccc(Br)cc1-c1ccno1` yielded a half-inhibitory concentration (IC50) in test [1] above 500 µM.

For the compound `CCN(CC)CCCC(C)n1c(N)c(-c2nc3ccccc3[nH]2)c2nc(C#N)c(C#N)nc21` (configuration not stated), in test [1], the half-inhibitory concentration (IC50) is 50 µM.

In the case of `Oc1c(Br)cc(Br)cc1-c1[nH]c(Br)c(Br)c1Br` [PENTABROMOPSEUDILIN], the half-inhibitory concentration (IC50) in test [4] is 48 µM.

The compound `Oc1c(Cl)cc(Cl)cc1-c1[nH]c(Br)c(Br)c1Br` [TRIBROMODICHLOROPSEUDILIN] came in with an IC50 in test [4] of 56 µM.
